Results published in patent US8557796B2, “Substituted 1-oxa-2,8-diaza-spiro [4,5] dec-2-ene derivatives and related treatment methods” (Gruenenthal GmbH, priority 2001, dated 2013).

Biological target: T1, NA transporter (Rattus norvegicus, UniProt Q9WTR4)
T1 construct: synaptosomes from rat brain regions were freshly isolated; from tissue; host or cells: P2 synaptosome fraction from hypothalamus of male rat brain
Assay: Noradrenalin uptake inhibition (NA-uptake) in synaptosomes
Format: biochemical
Details: rat hypothalamus synaptosomes
Description: Tests on Noradrenalin Uptake Inhibition (NA-Uptake Inhibition)
In order to be able to carry out these in vitro studies, synaptosomes from rat brain regions were freshly isolated.

T1 sequence (Q9WTR4 1-597): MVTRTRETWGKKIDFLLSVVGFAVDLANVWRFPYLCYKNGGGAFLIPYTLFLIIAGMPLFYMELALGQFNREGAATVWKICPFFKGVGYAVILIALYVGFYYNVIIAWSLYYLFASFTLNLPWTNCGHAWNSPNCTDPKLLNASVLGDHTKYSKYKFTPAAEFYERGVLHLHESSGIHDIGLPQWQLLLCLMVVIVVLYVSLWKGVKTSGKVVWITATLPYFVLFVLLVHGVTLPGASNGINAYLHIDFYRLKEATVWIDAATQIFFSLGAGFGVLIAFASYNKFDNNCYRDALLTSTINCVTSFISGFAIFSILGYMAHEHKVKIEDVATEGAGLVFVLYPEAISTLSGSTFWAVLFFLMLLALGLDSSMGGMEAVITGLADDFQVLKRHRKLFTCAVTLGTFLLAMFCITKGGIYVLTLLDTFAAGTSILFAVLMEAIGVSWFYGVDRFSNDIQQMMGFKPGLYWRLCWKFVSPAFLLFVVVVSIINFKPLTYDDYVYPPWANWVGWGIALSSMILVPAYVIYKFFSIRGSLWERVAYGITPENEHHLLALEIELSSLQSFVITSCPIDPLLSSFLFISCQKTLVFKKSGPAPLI

Compound	inhibition at 10 µM	NA-uptake, 10 μM, % inhibition
COc1ccc(S(=O)(=O)N2CCC3(CC2)CC(C(=O)NC2CCCC2OCc2ccccc2)=NO3)cc1 (stereo not drawn) [Example 169, 8-(4-methoxy-benzenesulphonyl)-1-oxa-2,8-diaza-spiro[4,5]dec-2-ene-3-carboxylic acid (2-benzyloxy-cyclopentyl)-amide]	64%	–
Cc1ccc(F)c(C(=O)N2CCC3(CC2)CC(C(=O)NCc2cccs2)=NO3)c1F [Example 170, 8-(2,6-difluoro-3-methyl-benzoyl)-1-oxa-2,8-diaza-spiro[4,5]dec-2-ene-3-carboxylic acid (thiophen-2-ylmethyl)-amide]	43%	–
O=C(NCc1ccccc1)C1=NOC2(CCN(C(=O)COCc3ccccc3)CC2)C1 [Example 171, 8-(2-benzyloxy-acetyl)-1-oxa-2,8-diaza-spiro[4,5]dec-2-ene-3-carboxylic acid benzylamide]	73%	–
O=C(Nc1ccccc1)C1=NOC2(CCN(C(=O)c3cccc(Cl)c3Cl)CC2)C1 [Example 172, 8-(2,3-dichloro-benzoyl)-1-oxa-2,8-diaza-spiro[4,5]dec-2-ene-3-carboxylic acid phenylamide]	41%	–
COc1ccc(Br)cc1S(=O)(=O)N1CCC2(CC1)CC(C(=O)NC1CCCC1)=NO2 [Example 173, 8-(5-bromo-2-methoxy-benzenesulphonyl)-1-oxa-2,8-diaza-spiro[4,5]dec-2-ene-3-carboxylic acid cyclopentylamide]	60%	–
O=C(C1=NOC2(CCN(S(=O)(=O)c3ccc(OC(F)(F)F)cc3)CC2)C1)N1CCN(CCCc2ccccc2)CC1 [Example 176, [4-(3-phenyl-propyl)-piperazin-l-yl]-[8-(4-trifluoromethoxy-benzenesulphonyl)-1-oxa-2,8-diaza-spiro [4,5]dec-2-en-3-yl]-methanone]	–	52%
Cc1onc(-c2c(F)cccc2Cl)c1C(=O)N1CCC2(CC1)CC(C(=O)NCc1ccccc1)=NO2 [Example 177, 8-[3-(2-chloro-6-fluorophenyl)-5-methyl-isoxazole-4-carbonyl]-1-oxa-2,8-diaza-spiro [4,5]dec-2-ene-3-carboxylic acid benzylamide]	47%	–
CC(C)CNC(=O)C1=NOC2(CCN(C(=O)c3cccc4ccccc34)CC2)C1 [Example 178, 8-(naphthalene-1-carbonyl)-1-oxa-2,8-diaza-spiro[4,5]dec-2-ene-3-carboxylic acid isobutyl-amide]	51%	–
CCOC(=O)C1CCCCN1C(=O)C1=NOC2(CCN(C(=O)c3cc(C(C)(C)C)oc3C)CC2)C1 (stereo not drawn) [Example 179, 1-[8-(5-tert-butyl-2-methyl-furan-3-carbonyl)-1-oxa-2,8-diaza-spiro[4,5]dec-2-ene-3-carbonyl]-piperidine-2-carboxylic acid ethyl ester]	49%	–
O=C(NCc1ccccc1)C1=NOC2(CCN(C(=O)c3cccc(SC(F)F)c3)CC2)C1 [Example 180, 8-(3-difluoromethylsulphanyl-benzoyl)-1-oxa-2,8-diaza-spiro[4,5]dec-2-ene-3-carboxylic acid benzylamide]	61%	–
O=C(Nc1ccccc1)C1=NOC2(CCN(C(=O)c3ccc(Br)cc3)CC2)C1 [Example 181, 8-(4-bromo-benzoyl)-1-oxa-2,8-diaza-spiro[4,5]dec-2-ene-3-acarboxylic cid phenylamide]	–	51%
COc1ccc(S(=O)(=O)N2CCC3(CC2)CC(C(=O)NC2CC2c2ccccc2)=NO3)cc1 (stereo not drawn) [Example 182, 8-(4-methoxy-benzenesulphonyl)-1-oxa-2,8-diaza-spiro[4,5]dec-2-ene-3-carboxylic acid (2-phenyl-cyclopropyl)-amide]	73%	–
O=C(NCc1cccs1)C1=NOC2(CCN(C(=O)CCCOc3ccccc3)CC2)C1 [Example 183]	–	67%
O=C(NCc1cccs1)C1=NOC2(CCN(C(=O)c3ccc(F)c(Cl)c3)CC2)C1 [Example 184, 8-(3-chloro-4-fluorobenzoyl)-1-oxa-2,8-diaza-spiro[4,5]dec-2-ene-3-carboxylic acid (thiophen-2-ylmethyl)-amide]	62%	–
CCSCCNC(=O)C1=NOC2(CCN(C(=O)c3cc(C(C)(C)C)nn3C)CC2)C1 [Example 185, 8-(5-tert-butyl-2-methyl-2H-pyrazole-3-carbonyl)-1-oxa-2,8-diaza-spiro[4,5]dec-2-ene-3-carboxylic acid (2-ethylsulphanyl-ethyl)-amide]	45%	–
O=C(C1=NOC2(CCN(S(=O)(=O)c3ccc(F)cc3)CC2)C1)N1CCN(CCCc2ccccc2)CC1 [Example 186, [8-(4-fluoro-benzenesulphonyl)-1-oxa-2,8-diaza-spiro[4,5]dec-2-en-3-yl]-[4-(3-phenyl-propyl)-piperazin-1-yl]-methanone]	63%	–
O=C(NCc1ccncc1)C1=NOC2(CCN(C(=O)c3ccc(OC(F)(F)F)cc3)CC2)C1 [Example 187, 8-(4-trifluoromethoxy-benzoyl)-1-oxa-2,8-diaza-spiro[4,5]dec-2-ene-3-carboxylic acid (pyridin-4-ylmethyl)-amide]	44%	–
O=C(NC1CCCC1)C1=NOC2(CCN(C(=O)c3ccccc3COC(=O)c3ccccc3)CC2)C1 [Example 188]	–	49%

Compound	inhibition at 10 µM	NA-uptake, 10 μM, % inhibition
CN(C)S(=O)(=O)N1CCC2(CC1)CC(C(=O)N1CCN(Cc3ccc(C(C)(C)C)cc3)CC1)=NO2 [Example 189, 3-[4-(4-tert-butyl-benzyl)-piperazine-1-carbonyl]-1-oxa-2,8-diaza-spiro[4,5]dec-2-ene-8-sulphonic acid dimethylamide]	45%	–
O=C(NC1CCCC1OCc1ccccc1)C1=NOC2(CCN(S(=O)(=O)c3ccc(Cl)s3)CC2)C1 (stereo not drawn) [Example 191]	–	74%
O=C(NCc1cccs1)C1=NOC2(CCN(C(=O)c3cccc4ccccc34)CC2)C1 [Example 192, 8-(naphthalene-1-carbonyl)-1-oxa-2,8-diaza-spiro[4,5]dec-2-ene-3-carboxylic acid (thiophen-2-ylmethyl)-amide]	41%	–
O=C(NCCCc1ccccc1)C1=NOC2(CCN(S(=O)(=O)c3ccc(F)cc3)CC2)C1 [Example 193, 8-(4-fluoro-benzenesulphonyl)-1-oxa-2,8-diaza-spiro[4,5]dec-2-ene-3-carboxylic acid (3-phenyl-propyl)-amide]	47%	–
O=C(NCC1COc2ccccc2O1)C1=NOC2(CCN(S(=O)(=O)c3ccc(Cl)s3)CC2)C1 (stereo not drawn) [Example 194, 8-(5-chloro-thiophene-2-sulphonyl)-1-oxa-2,8-diaza-spiro[4,5]dec-2-ene-3-carboxylic acid (2,3-dihydro-benzo[1,4]dioxin-2-ylmethyl)-amide]	65%	–
CCOC(=O)C1CCCCN1C(=O)C1=NOC2(CCN(C(=O)c3ccc(C(C)(C)C)cc3)CC2)C1 (stereo not drawn) [Example 195, 1-[8-(4-tert-butyl-benzoyl)-1-oxa-2,8-diaza-spiro[4,5]dec-2-ene-3-carbonyl]-piperidine-2-carboxylic acid ethyl ester]	41%	–
O=C(NCCc1cccc(C(F)(F)F)c1)C1=NOC2(CCN(S(=O)(=O)c3ccc(F)cc3)CC2)C1 [Example 196]	–	40%
Cc1onc(-c2c(Cl)cccc2Cl)c1C(=O)N1CCC2(CC1)CC(C(=O)NCc1cccs1)=NO2 [Example 197, 8-[3-(2,6-dichloro-phenyl)-5-methyl-isoxazole-4-carbonyl]-1-oxa-2,8-diaza-spiro[4,5]dec-2-ene-3-carboxylic acid (thiophen-2-ylmethyl)-amide]	41%	–
CC(NC(=O)C1=NOC2(CCN(S(=O)(=O)c3ccc(F)cc3)CC2)C1)C(=O)Nc1ccc2ccccc2c1 (stereo not drawn) [Example 198, 8-(4-fluoro-benzenesulphonyl)-1-oxa-2,8-diaza-spiro[4,5]dec-2-ene-3-carboxylic acid [1-(naphthalen-2-ylcarbamoyl)ethyl]-amide]	52%	–
O=C(NC1CCCC1OCc1ccccc1)C1=NOC2(CCN(S(=O)(=O)c3ccc(F)cc3)CC2)C1 (stereo not drawn) [Example 199]	–	78%
COC(=O)C(Cc1ccc(Cl)cc1)NC(=O)C1=NOC2(CCN(S(=O)(=O)c3ccc(OC)cc3)CC2)C1 (stereo not drawn) [Example 200]	–	43%
O=C(NC1CCCC1OCc1ccccc1)C1=NOC2(CCN(S(=O)(=O)c3cccc(C(F)(F)F)c3)CC2)C1 (stereo not drawn) [Example 201, 8-(3-trifluoromethyl-benzenesulphonyl)-1-oxa-2,8-diaza-spiro[4,5]dec-2-ene-3-carboxylic acid (2-benzyloxy-cyclopentyl)-amide]	58%	–
O=C(NCc1ccccc1)C1=NOC2(CCN(C(=O)c3cccnc3Oc3ccccc3)CC2)C1 [Example 203, 8-(2-phenoxy-pyridine-3-carbonyl)-1-oxa-2,8-diaza-spiro[4,5]dec-2-ene-3-carboxylic acid benzylamide]	58%	–
O=C(NCC1CC1)C1=NOC2(CCN(C(=O)c3ccc4ccccc4c3)CC2)C1 [Example 204, 8-(naphthalene-2-carbonyl)-1-oxa-2,8-diaza-spiro[4,5]dec-2-ene-3-carboxylic acid cyclopropylmethyl-amide]	48%	–
O=C(NCc1ccccc1)C1=NOC2(CCN(C(=O)c3ccc(F)c(Cl)c3)CC2)C1 [Example 205, 8-(3-chloro-4-fluorobenzoyl)-1-oxa-2,8-diaza-spiro[4,5]dec-2-ene-3-carboxylic acid benzylamide]	46%	–
O=C(NCc1ccccc1F)C1=NOC2(CCN(S(=O)(=O)c3ccc(F)cc3)CC2)C1 [Example 207, 8-(4-fluoro-benzenesulphonyl)-1-oxa-2,8-diaza-spiro[4,5]dec-2-ene-3-carboxylic acid 2 fluorobenzylamide]	50%	–
O=C(NCc1cccs1)C1=NOC2(CCN(C(=O)c3cccc(Cl)c3)CC2)C1 [Example 208]	–	52%
O=C(C1=NOC2(CCN(S(=O)(=O)c3cc(Cl)ccc3Cl)CC2)C1)N1CCN(Cc2ccccc2)CC1 [Example 209, (4-benzyl-piperazin-l-yl)-[8-(2,5-dichloro-benzenesulphonyl)-1-oxa-2,8-diaza-spiro[4,5]dec-2-en-3-yl]-methanone]	–	51%
